Values quoted from earlier work in patent US20100135914A1, “AZEOTROPIC FUMIGANT COMPOSITIONS AND METHODS OF CONTROLLING PESTS” (priority 2008, published 2010).

Experiments:
[1] = tested on: eggs of many moths and beetles; details: exposures of up to three days
[2] = tested on: post-embryonic stages of insects; details: in vivo

SMILES	dosage level toxic to maize weevil eggs (maize weevil; eggs, over 6 hours)	toxicity to life stages of the maize weevil (maize weevil; relatively short exposure periods and low temperatures)	concentration for complete kill of the egg stage [1]	toxicity to post-embryonic stages of insects [2]
CI [Methyl iodide]	2.16 mg/L	toxic to all life stages	–	–
O=S(=O)(F)F [Sulfuryl fluoride]	–	–	over 50 mg/L	highly toxic
